Where two headings read alike, the source gives them in different places.
Key:
[1] = target: T1, WEE1 (Homo sapiens, UniProt P30291+Q96SW2); test: Western-blot assay of substrate protein degradation in hPBMCs, WEE1; assay type: cell-based; settings: 24 hours of compound treatment
T1 construct: endogenous in cells; host or cells: hPBMCs (Milecell Biotechnologies)

[2] = target: T2, IKZF1 (Homo sapiens, UniProt Q13422+Q96SW2); test: Western-blot assay of substrate protein degradation in hPBMCs, IKZF1; assay type: cell-based; settings: 24 hours of compound treatment
T2 construct: endogenous in cells; host or cells: hPBMCs (Milecell Biotechnologies)

[3] = target: T3, IKZF2 (Homo sapiens, UniProt Q96SW2+Q9UKS7); test: Western-blot assay of substrate protein degradation in hPBMCs, IKZF2; assay type: cell-based; settings: 24 hours of compound treatment
T3 construct: endogenous in cells; host or cells: hPBMCs (Milecell Biotechnologies)

[4] = target: T4, IKZF3 (Homo sapiens, UniProt Q96SW2+Q9UKT9); test: Western-blot assay of substrate protein degradation in hPBMCs, IKZF3; assay type: cell-based; settings: 24 hours of compound treatment
T4 construct: endogenous in cells; host or cells: hPBMCs (Milecell Biotechnologies)

[5] = target: T5, CK1α (Homo sapiens, UniProt P48729+Q96SW2); test: Western-blot assay of substrate protein degradation in hPBMCs, CK1α; assay type: cell-based; settings: 24 hours of compound treatment
T5 construct: endogenous in cells; host or cells: hPBMCs (Milecell Biotechnologies)

[6] = target: T6, GSPT1 (Homo sapiens, UniProt P15170+Q96SW2); test: Western-blot assay of substrate protein degradation in hPBMCs, GSPT1; assay type: cell-based; settings: 24 hours of compound treatment
T6 construct: endogenous in cells; host or cells: hPBMCs (Milecell Biotechnologies)

[7] = target: T7, human Cereblon WT GST-tagged protein (Homo sapiens, UniProt Q96SW2); test: CRBN-binding affinity by HTRF (CEREBLON BINDING kit); settings: HTRF inhibitory activity, CEREBLON BINDING kit; read-out: HTRF IC50
T7 construct: purchased CISBIO 64BDCRBNPEH

[8] = test system: SR; test: Tumor cell proliferation inhibition (CellTiter-Meiluncell Luminescent Cell Viability Assay), SR; settings: Homo sapiens, 96 h, read-out: inhibitory activity (IC50, nM) against tumor cells proliferation, SR
Method: (§1) The tumor cells used herein were cultured in a cell culture medium listed in table 2 at 37°C in an incubator with 5% CO2. Prior to experimentation, all cell lines used were correctly identified by STR profiling, and tested negative for mycoplasma contamination using a mycoplasma detection kit through routine screenings.
(§2) On the following day, the test compounds of the present disclosure were subjected to serial dilution. […] Subsequently, 0.5 µL of the test compound dilution was transferred into the 96-well plate containing the cells, with each well containing 100 µL of cell culture medium. […] Into the 96-well plate, the diluted test compounds and corresponding detection reagents were added, resulting in final test compound concentrations of 500 nM and 10 nM, respectively.
(§3) After the cells were treated with the compounds of the present disclosure for a specified period (the treatment durations were shown in Table 3), the cell viability assay reagent was added to the culture medium according to the kit's instructions to determine cell viability. […] All controls were treated using the same procedure as the compounds of the present disclosure. The growth inhibition curves for the compounds of the present disclosure were plotted using Prism GraphPad software, and the IC50 values were calculated therefrom.

[9] = test system: Vcap; test: Tumor cell proliferation inhibition (CellTiter-Meiluncell Luminescent Cell Viability Assay), Vcap; settings: Homo sapiens, 96 h, read-out: inhibitory activity (IC50, nM) against tumor cells proliferation, Vcap
[10] = test system: MM.1R; test: Tumor cell proliferation inhibition (CellTiter-Meiluncell Luminescent Cell Viability Assay), MM.1R; settings: Homo sapiens, 96 h, read-out: inhibitory activity (IC50, nM) against tumor cells proliferation, MM.1R
[11] = test system: SW620; test: Tumor cell proliferation inhibition (CellTiter-Meiluncell Luminescent Cell Viability Assay), SW620; settings: Homo sapiens, SW-620, 96 h, read-out: inhibitory activity (IC50, nM) against tumor cells proliferation, SW620
Method: as §1
(§4) On the following day, the test compounds of the present disclosure were subjected to serial dilution. […] Subsequently, 0.5 µL of the test compound dilution was transferred into the 96-well plate containing the cells, with each well containing 100 µL of cell culture medium. […] Into the 96-well plate, the diluted test compounds and corresponding detection reagents were added, resulting in final test compound concentrations of 500 nM and 10 nM, respectively. The experimental procedure is described below using the diluted 2 µM test compound as an example.
as §3

[12] = test system: Jurkat; test: Tumor cell proliferation inhibition (CellTiter-Meiluncell Luminescent Cell Viability Assay), Jurkat; settings: Homo sapiens, 96 h, read-out: inhibitory activity (IC50, nM) against tumor cells proliferation, Jurkat
[13] = test system: CAL-62; test: Tumor cell proliferation inhibition (CellTiter-Meiluncell Luminescent Cell Viability Assay), CAL-62; settings: Homo sapiens, CAL-62, 96 h, read-out: inhibitory activity (IC50, nM) against tumor cells proliferation, CAL-62
[14] = test system: Human acute T lymphocytic leukemia cells (Molt-4); test: Tumor cell proliferation inhibition (CellTiter-Meiluncell Luminescent Cell Viability Assay), Molt-4; settings: MOLT-4, 96 h, read-out: inhibitory activity (IC50, nM) against tumor cells proliferation, Molt 4
[15] = test system: MGC803; test: Tumor cell proliferation inhibition (CellTiter-Meiluncell Luminescent Cell Viability Assay), MGC803; settings: Homo sapiens, MGC-803, 96 h, read-out: inhibitory activity (IC50, nM) against tumor cells proliferation, MGC803
Method: as §1, §2, §3

[16] = test system: CCRF-CEM; test: Tumor cell proliferation inhibition (CellTiter-Meiluncell Luminescent Cell Viability Assay), CCRF-CEM; settings: Homo sapiens, 96 h, read-out: inhibitory activity (IC50, nM) against tumor cells proliferation, CCRF-CEM
[17] = test system: NCI-H1975; test: Tumor cell proliferation inhibition (CellTiter-Meiluncell Luminescent Cell Viability Assay), NCI-H1975; settings: Homo sapiens, NCI-H1975, 96 h, read-out: inhibitory activity (IC50, nM) against tumor cells proliferation, H1975
[18] = test system: Human breast cancer cells (MDA-MB-231); test: Tumor cell proliferation inhibition (CellTiter-Meiluncell Luminescent Cell Viability Assay), MDA-MB-231; settings: MDA-MB-231, 96 h, read-out: inhibitory activity (IC50, nM) against tumor cells proliferation, MDA-MB-231
Method: as §1, §4, §3

[19] = test system: MV-4-11; test: Tumor cell proliferation inhibition (CellTiter-Meiluncell Luminescent Cell Viability Assay), MV-4-11
[20] = compounds tested at 50 nM and 500 nM (concentration of the table not stated)
[21] = 50 nM and 500 nM tested (concentration behind the class not stated)
[22] = Homo sapiens, MV4-11, read-out: inhibitory activity (IC50, nM) against tumor cells proliferation, MV-4-11

T1 sequence (P30291 whole entry): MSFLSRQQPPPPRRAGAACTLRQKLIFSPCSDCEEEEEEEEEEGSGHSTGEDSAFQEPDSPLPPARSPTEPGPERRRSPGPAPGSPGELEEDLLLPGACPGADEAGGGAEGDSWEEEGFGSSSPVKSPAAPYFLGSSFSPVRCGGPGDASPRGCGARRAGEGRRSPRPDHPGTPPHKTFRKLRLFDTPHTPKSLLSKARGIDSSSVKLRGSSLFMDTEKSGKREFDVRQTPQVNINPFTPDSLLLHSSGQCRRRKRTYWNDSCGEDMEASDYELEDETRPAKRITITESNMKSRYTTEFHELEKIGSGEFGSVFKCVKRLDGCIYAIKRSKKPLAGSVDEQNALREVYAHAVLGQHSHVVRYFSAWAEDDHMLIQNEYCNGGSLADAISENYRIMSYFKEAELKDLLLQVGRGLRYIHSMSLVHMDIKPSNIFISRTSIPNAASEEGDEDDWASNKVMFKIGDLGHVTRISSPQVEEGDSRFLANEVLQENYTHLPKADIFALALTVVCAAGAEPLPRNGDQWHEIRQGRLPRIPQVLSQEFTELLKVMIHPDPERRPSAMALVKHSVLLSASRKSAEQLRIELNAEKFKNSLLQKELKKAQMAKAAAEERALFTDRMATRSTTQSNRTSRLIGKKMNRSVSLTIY
T1 sequence (Q96SW2 whole entry): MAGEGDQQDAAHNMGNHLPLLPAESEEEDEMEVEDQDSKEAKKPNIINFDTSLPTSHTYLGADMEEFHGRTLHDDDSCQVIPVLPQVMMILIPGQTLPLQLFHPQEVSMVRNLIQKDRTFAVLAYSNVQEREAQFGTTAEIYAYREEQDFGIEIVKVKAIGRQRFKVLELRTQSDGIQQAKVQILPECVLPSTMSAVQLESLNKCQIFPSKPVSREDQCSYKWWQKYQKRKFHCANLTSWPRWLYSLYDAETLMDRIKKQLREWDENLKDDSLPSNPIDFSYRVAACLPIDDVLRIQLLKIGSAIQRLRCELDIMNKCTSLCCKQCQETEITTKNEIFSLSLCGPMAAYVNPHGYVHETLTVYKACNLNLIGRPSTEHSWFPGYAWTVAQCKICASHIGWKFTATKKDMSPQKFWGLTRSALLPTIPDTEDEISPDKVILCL
T1 sequence (Q16531 whole entry partner): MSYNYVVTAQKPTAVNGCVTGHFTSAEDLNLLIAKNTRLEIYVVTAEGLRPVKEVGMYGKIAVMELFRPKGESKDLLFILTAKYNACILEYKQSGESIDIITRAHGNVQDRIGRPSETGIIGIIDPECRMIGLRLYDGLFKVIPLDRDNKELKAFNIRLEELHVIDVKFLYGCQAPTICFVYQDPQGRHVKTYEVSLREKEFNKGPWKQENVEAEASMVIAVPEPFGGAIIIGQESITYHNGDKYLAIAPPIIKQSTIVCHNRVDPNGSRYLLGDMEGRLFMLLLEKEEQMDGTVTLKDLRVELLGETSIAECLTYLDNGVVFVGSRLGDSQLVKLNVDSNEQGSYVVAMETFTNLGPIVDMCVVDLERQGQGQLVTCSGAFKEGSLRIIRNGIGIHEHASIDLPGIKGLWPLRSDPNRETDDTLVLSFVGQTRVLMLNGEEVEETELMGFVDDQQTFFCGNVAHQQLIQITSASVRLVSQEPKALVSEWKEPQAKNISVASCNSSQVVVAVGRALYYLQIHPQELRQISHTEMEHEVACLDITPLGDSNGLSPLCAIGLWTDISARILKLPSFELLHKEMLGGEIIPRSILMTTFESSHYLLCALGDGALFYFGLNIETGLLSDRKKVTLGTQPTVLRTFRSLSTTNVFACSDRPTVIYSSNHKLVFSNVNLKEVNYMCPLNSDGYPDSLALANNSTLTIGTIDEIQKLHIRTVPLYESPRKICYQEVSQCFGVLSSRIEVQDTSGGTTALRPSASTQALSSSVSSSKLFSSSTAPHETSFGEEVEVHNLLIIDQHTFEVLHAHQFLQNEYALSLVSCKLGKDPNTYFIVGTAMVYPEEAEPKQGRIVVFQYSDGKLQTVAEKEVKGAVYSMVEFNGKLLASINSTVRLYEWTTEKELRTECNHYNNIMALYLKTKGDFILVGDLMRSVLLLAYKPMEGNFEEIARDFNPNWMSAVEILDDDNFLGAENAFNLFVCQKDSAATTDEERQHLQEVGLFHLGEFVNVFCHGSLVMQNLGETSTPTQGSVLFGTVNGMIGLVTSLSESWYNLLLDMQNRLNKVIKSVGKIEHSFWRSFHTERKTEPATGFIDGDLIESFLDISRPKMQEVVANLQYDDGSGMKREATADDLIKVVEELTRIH
T2 sequence (Q13422 whole entry): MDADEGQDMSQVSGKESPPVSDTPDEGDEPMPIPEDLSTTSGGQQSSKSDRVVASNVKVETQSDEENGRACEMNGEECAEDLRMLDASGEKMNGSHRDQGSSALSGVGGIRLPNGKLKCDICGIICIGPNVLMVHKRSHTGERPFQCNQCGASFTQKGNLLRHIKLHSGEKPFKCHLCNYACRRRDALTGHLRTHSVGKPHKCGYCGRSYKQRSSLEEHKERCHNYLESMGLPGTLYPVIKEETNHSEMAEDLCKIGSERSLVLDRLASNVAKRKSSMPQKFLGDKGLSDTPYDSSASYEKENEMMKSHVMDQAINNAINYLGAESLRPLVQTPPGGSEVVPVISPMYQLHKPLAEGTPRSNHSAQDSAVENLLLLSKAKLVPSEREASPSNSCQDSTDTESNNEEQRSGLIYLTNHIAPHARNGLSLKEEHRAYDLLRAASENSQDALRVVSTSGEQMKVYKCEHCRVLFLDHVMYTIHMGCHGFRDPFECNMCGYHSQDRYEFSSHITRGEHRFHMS
T2 sequence (Q96SW2 whole entry): as the sequence (Q96SW2 whole entry) above
T2 sequence (Q16531 whole entry partner): as the sequence (Q16531 whole entry partner) above
T3 sequence (Q9UKS7 whole entry): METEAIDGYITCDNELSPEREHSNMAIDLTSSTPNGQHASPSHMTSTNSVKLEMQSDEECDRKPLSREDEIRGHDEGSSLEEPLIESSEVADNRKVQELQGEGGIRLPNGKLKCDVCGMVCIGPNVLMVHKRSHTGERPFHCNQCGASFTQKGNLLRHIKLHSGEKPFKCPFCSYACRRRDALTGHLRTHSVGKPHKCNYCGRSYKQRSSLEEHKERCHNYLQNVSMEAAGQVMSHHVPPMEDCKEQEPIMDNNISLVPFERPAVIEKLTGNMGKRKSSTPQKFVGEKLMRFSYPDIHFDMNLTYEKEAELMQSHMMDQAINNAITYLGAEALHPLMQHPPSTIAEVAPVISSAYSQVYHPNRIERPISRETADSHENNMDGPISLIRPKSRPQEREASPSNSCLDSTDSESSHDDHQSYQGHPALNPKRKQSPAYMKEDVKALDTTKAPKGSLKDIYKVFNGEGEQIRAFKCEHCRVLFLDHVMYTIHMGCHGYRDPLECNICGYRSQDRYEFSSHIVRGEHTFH
T3 sequence (Q96SW2 whole entry): as the sequence (Q96SW2 whole entry) above
T3 sequence (Q16531 whole entry partner): as the sequence (Q16531 whole entry partner) above
T4 sequence (Q9UKT9 whole entry): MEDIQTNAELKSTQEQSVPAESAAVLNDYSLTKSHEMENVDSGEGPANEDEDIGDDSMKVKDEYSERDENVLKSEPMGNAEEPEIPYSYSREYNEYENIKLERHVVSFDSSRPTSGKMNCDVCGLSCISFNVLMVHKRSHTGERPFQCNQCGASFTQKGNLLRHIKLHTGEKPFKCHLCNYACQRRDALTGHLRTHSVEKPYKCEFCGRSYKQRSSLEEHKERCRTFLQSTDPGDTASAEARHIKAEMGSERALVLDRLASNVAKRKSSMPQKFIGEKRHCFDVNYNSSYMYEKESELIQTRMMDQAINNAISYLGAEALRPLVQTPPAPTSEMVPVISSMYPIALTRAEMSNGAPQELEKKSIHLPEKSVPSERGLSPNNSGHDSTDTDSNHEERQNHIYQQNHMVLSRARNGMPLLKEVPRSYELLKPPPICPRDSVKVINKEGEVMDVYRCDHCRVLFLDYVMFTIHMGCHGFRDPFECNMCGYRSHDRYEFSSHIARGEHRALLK
T4 sequence (Q96SW2 whole entry): as the sequence (Q96SW2 whole entry) above
T4 sequence (Q16531 whole entry partner): as the sequence (Q16531 whole entry partner) above
T6 sequence (P15170 whole entry): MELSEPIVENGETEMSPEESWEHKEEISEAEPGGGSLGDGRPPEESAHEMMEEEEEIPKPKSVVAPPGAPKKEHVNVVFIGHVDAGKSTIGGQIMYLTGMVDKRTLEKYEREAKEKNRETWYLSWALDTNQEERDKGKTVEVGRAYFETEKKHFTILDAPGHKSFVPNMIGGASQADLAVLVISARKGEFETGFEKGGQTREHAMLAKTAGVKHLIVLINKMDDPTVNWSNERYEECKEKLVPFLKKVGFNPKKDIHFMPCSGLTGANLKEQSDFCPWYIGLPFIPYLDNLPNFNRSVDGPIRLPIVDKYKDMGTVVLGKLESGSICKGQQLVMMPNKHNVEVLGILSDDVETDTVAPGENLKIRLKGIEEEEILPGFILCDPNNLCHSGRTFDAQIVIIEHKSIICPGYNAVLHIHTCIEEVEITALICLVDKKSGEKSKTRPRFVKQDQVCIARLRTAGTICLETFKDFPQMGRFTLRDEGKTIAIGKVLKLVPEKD
T6 sequence (Q96SW2 whole entry): as the sequence (Q96SW2 whole entry) above
T6 sequence (Q16531 whole entry partner): as the sequence (Q16531 whole entry partner) above
T7 sequence (Q96SW2 whole entry): as the sequence (Q96SW2 whole entry) above

| IC50 [19, 22] [nM] | Structure (SMILES) | Weel substrate protein remaining % [1, 21] | IKZF 1 substrate protein remaining % [2, 21] | IKZF2 substrate protein remaining % [3, 21] | IKZF3 substrate protein remaining % [4, 21] | CK1a substrate protein remaining % [5, 21] | GSPT1 substrate protein remaining % [6, 21] | other results |
| --- | --- | --- | --- | --- | --- | --- | --- | --- |
| 100 to 500 | O=C1CCC(N2C(=O)c3ccc(CN4CCN(c5nccc(Cl)c5Br)CC4)cc3C2=O)C(=O)N1 (centres unmarked) [GT-06601, 5-((4-(3-bromo-4-chloropyridin-2-yl)piperazin-1-yl)methyl)-2-(2,6-dioxopiperidin-3-yl)isoindoline-1,3-dione] | B (80%< substrate protein remaining %≤ 100%) | B (80%< substrate protein remaining %≤ 100%) | B (80%< substrate protein remaining %≤ 100%) | B (80%< substrate protein remaining %≤ 100%) | B (80%< substrate protein remaining %≤ 100%) | A (0% ≤ substrate protein remaining % ≤ 80%) |  |
| 100 to 500 | O=C1CCC(N2C(=O)c3ccc(CN4CCN(c5ncnc(Cl)c5Cl)CC4)cc3C2=O)C(=O)N1 (centres unmarked) [GT-06623, 5-((4-(5,6-dichloropyrimidin-4-yl)piperazin-1-yl)methyl)-2-(2,6-dioxopiperidin-3-yl)isoindoline-1,3-dione] |  |  |  |  |  |  |  |
| 100 to 500 | O=C1CCC(N2C(=O)c3ccc(CN4CCN(c5nsc6cc(F)ccc56)CC4)cc3C2=O)C(=O)N1 (centres unmarked) [GT-06631, 2-(2,6-dioxopiperidin-3-yl)-5-((4-(6-fluorobenzo[d]isothiazol-3-yl)piperazin-1-yl)methyl)isoindoline-1,3-dione] | A (0% ≤ substrate protein remaining % ≤ 80%) | B (80%< substrate protein remaining %≤ 100%) | B (80%< substrate protein remaining %≤ 100%) | B (80%< substrate protein remaining %≤ 100%) | A (0% ≤ substrate protein remaining % ≤ 80%) | A (0% ≤ substrate protein remaining % ≤ 80%) |  |

Further lines, the compound ahead of its results:

| Structure (SMILES) | IC50 [19, 22] [nM] | Weel substrate protein remaining % [1, 21] | IKZF 1 substrate protein remaining % [2, 21] | IKZF2 substrate protein remaining % [3, 21] | IKZF3 substrate protein remaining % [4, 21] | CK1a substrate protein remaining % [5, 21] | GSPT1 substrate protein remaining % [6, 21] | other results |
| --- | --- | --- | --- | --- | --- | --- | --- | --- |
| O=C1CCC(N2Cc3cc(CN4CCN(c5cccc(Cl)n5)CC4)ccc3C2=O)C(=O)N1 (centres unmarked) [GT-04497, 3-(5-((4-(6-chloropyridin-2-yl)piperazin-1-yl)methyl)-1-oxoisoindolin-2-yl)piperidine-2,6-dione] |  |  |  |  |  |  |  | Weel substrate protein remaining % [1, 20]: A (0% ≤ substrate protein remaining % ≤ 80%); IKZF 1 substrate protein remaining % [2, 20]: A (0% ≤ substrate protein remaining % ≤ 80%); IKZF2 substrate protein remaining % [3, 20]: A (0% ≤ substrate protein remaining % ≤ 80%); IKZF3 substrate protein remaining % [4, 20]: A (0% ≤ substrate protein remaining % ≤ 80%); CK1a substrate protein remaining % [5, 20]: A (0% ≤ substrate protein remaining % ≤ 80%); GSPT1 substrate protein remaining % [6, 20]: A (0% ≤ substrate protein remaining % ≤ 80%); IC50 [7]: 500 to 1000 nM; IC50 [8]: 10 to 50 nM; IC50 [9]: 5 to 10 nM; IC50 [10]: 1 to 5 nM; IC50 [11]: 10 to 50 nM; IC50 [12]: 1 to 5 nM; IC50 [13]: 1 to 5 nM; IC50 [14]: 1 to 5 nM; IC50 [15]: 50 to 100 nM; IC50 [16]: 1 to 5 nM; IC50 [17]: 10 to 50 nM; IC50 [18]: 10 to 50 nM |
| Cc1cscc1C1=CCN(Cc2ccc3c(c2)CN(C2CCC(=O)NC2=O)C3=O)CC1 (centres unmarked) [GT-04503, 3-(5-((4-(4-methylthiophen-3-yl)-3,6-dihydropyridin-1(2H)-yl)methyl)-1-oxoisoindolin-2-yl)piperidine-2,6-dione] |  |  |  |  |  |  |  | Weel substrate protein remaining % [1, 20]: A (0% ≤ substrate protein remaining % ≤ 80%); IKZF 1 substrate protein remaining % [2, 20]: A (0% ≤ substrate protein remaining % ≤ 80%); IKZF2 substrate protein remaining % [3, 20]: A (0% ≤ substrate protein remaining % ≤ 80%); IKZF3 substrate protein remaining % [4, 20]: A (0% ≤ substrate protein remaining % ≤ 80%); CK1a substrate protein remaining % [5, 20]: A (0% ≤ substrate protein remaining % ≤ 80%); GSPT1 substrate protein remaining % [6, 20]: A (0% ≤ substrate protein remaining % ≤ 80%); IC50 [7]: < 500 nM; IC50 [8]: 1 to 5 nM; IC50 [9]: 1 to 5 nM; IC50 [10]: 1 to 5 nM; IC50 [11]: 1 to 5 nM; IC50 [12]: < 1 nM; IC50 [13]: < 1 nM; IC50 [14]: < 1 nM; IC50 [15]: 5 to 10 nM; IC50 [16]: < 1 nM; IC50 [17]: 1 to 5 nM; IC50 [18]: 1 to 5 nM |
| O=C1CCC(N2C(=O)c3ccc(CN4CC=C(c5ccnc(F)c5F)CC4)cc3C2=O)C(=O)N1 (centres unmarked) [GT-06614, 5-((2',3'-difluoro-3,6-dihydro-[4,4'-bipyridin]-1(2H)-yl)methyl)-2-(2,6-dioxopiperidin-3-yl)isoindoline-1,3-dione] | 10 to 50 | B (80%< substrate protein remaining %≤ 100%) | B (80%< substrate protein remaining %≤ 100%) | B (80%< substrate protein remaining %≤ 100%) | B (80%< substrate protein remaining %≤ 100%) | A (0% ≤ substrate protein remaining % ≤ 80%) | A (0% ≤ substrate protein remaining % ≤ 80%) |  |
| O=C1CCC(N2C(=O)c3ccc(CN4CCN(c5ccnc(Cl)c5F)CC4)cc3C2=O)C(=O)N1 (centres unmarked) [GT-06620, 5-((4-(2-chloro-3-fluoropyridin-4-yl)piperazin-1-yl)methyl)-2-(2,6-dioxopiperidin-3-yl)isoindoline-1,3-dione] | 100 to 500 | B (80%< substrate protein remaining %≤ 100%) | B (80%< substrate protein remaining %≤ 100%) | B (80%< substrate protein remaining %≤ 100%) | A (0% ≤ substrate protein remaining % ≤ 80%) | B (80%< substrate protein remaining %≤ 100%) | A (0% ≤ substrate protein remaining % ≤ 80%) |  |
| O=C1CCC(N2C(=O)c3ccc(CN4CCN(c5cc(Cl)nnc5Cl)CC4)cc3C2=O)C(=O)N1 (centres unmarked) [GT-06625, 5-((4-(3,6-dichloropyridazin-4-yl)piperazin-1-yl)methyl)-2-(2,6-dioxopiperidin-3-yl)isoindoline-1,3-dione] | 100 to 500 | B (80%< substrate protein remaining %≤ 100%) | B (80%< substrate protein remaining %≤ 100%) | B (80%< substrate protein remaining %≤ 100%) | B (80%< substrate protein remaining %≤ 100%) | B (80%< substrate protein remaining %≤ 100%) | A (0% ≤ substrate protein remaining % ≤ 80%) |  |
| O=C1CCC(N2C(=O)c3ccc(CN4CCN(c5ncncn5)CC4)cc3C2=O)C(=O)N1 (centres unmarked) [GT-06626, 5-((4-(1,3,5-triazin-2-yl)piperazin-1-yl)methyl)-2-(2,6-dioxopiperidin-3-yl)isoindoline-1,3-dione] |  |  | B (80%< substrate protein remaining %≤ 100%) | B (80%< substrate protein remaining %≤ 100%) | B (80%< substrate protein remaining %≤ 100%) |  | A (0% ≤ substrate protein remaining % ≤ 80%) | IC50 ([19]; read-out: inhibitory activity (IC50, nM) against tumor cells proliferation, MV-4-11): 50 to 100 nM |
